Experimental data: US20240181000A1, “LGG-DERIVED PEPTIDES AND METHODS OF USE THEREOF” (Ohio State Innovation Foundation, priority 2021, published 2024)
Like-named read-outs stand apart in the source and are kept apart here. No end group written: not given here.

How the values were obtained:
APEC [1] = format: in vivo, chickens
Description: FIGS. 57A-57D show the APEC load of chickens (at 7 dpi [days post infection]) treated with either peptides P-1 or P-2.

MlaA = assay: Immunoblot analysis; format: cell-based, E. coli; settings: densitometry
Protocol: (§1) Immunoblot analysis: To corroborate the findings of gene expression study, level of OmpC and MlaA proteins upon peptides (P1, P2, and P3) treatment was investigated as described previously. Peptides treated culture of APEC O78 was prepared as above and DMSO treated culture was used as control. Post-treatment, the fractions of cytoplasmic and membrane proteins was prepared using ultracentrifugation as previously described. The concentrations of fractionated membrane proteins were then normalized based on 280 nm and separated on a 12% SDS-PAGE. For immunoblot analysis, membrane proteins (25 μg) resolved on SDS-PAGE above were electrotransferred onto an Immuno-Blot® PVDF Membrane (Bio-Rad) and probed for OmpC and MlaA using anti-OmpC (1:2,000) (ThermoFisher Scientific) and anti-MlaA (1:15,000; Dr. Thomas J. Silhavy) polyclonal antibodies and goat anti-rabbit IgG HRP-conjugated secondary antibody (Sigma-Aldrich). The membrane was developed with Clarity Western ECL Substrate (Bio-Rad) and visualized in a FluorChem Q (proteinsimple) imager. The density of OmpC and MlaA proteins was quantified using ImageJ software.

OmpC = assay: Immunoblot analysis; format: cell-based, E. coli; settings: densitometry
Protocol: as §1

APEC [2] = assay: Alanine scanning SAR, anti-APEC activity; format: cell-based, E. coli
Description: Structure-activity relationship (SAR) study: To identify the crucial amino acid residues required for the peptide activity, alanine scanning libraries of peptides (P1, P2, and P3) (www.genscript.com/alanine_scanning.html) were synthesized (Table 22) and tested for anti-APEC activity as described above. The anti-APEC activity of peptide analogues (SEQ ID NO: 67-84) was then compared with the original peptide and the relative importance (% growth inhibition by peptide analogue/% growth inhibition by original peptide×100%) of each AA residue of the peptide was determined.

[3] = tested on: commensal and probiotic bacteria; assay: Effect against beneficial microbes; format: cell-based; settings: at MICs
Protocol: Effect against beneficial microbes: Peptides (P1, P2, and P3) were tested against different commensal and probiotic bacteria to determine their specificity of activity as described previously. Peptides were added at their MICs to 100 μL of known concentration of bacterial cultures and cultures were incubated under required conditions. Following incubation, OD600 of cultures was measured to determine the effect of peptides on bacterial growth.

multiple APEC serotypes = format: cell-based, E. coli
Protocol: Anti-APEC spectrum determination: Peptides (P1, P2, and P3) were tested against multiple APEC serotypes/strains to determine their spectrum of activity. Peptides were added at their MICs and the growth inhibitory activity of the peptides was determined as described above.

S. typhimurium = assay: P1 and P2 in drinking water, S. typhimurium infected chickens; format: in vivo; settings: 100 mg/L in drinking water, 7 dpi
Protocol: Both the P1 and P2 at 200 mg/L and 100 mg/L concentrations reduced S. typhimurium colonization by 0.78 (p<0.05) and 0.69 (p<0.05) log CFU/gm, respectively.

ST membrane = assay: Confocal microscopy (bacterial cytological profiling); format: cell-based, Salmonella enterica; settings: 5×MIC, 3 h
Protocol: Mode of action of peptides analyzed through confocal microscopy: To determine the mode of action of P1 and P2, bacterial cytological profiling was conducted using confocal microscopy as described in. […] Incubated bacteria cultures were then centrifuged and re-suspended in 100 μL sterile water. Following suspension, 1 μg/mL of FM4-64 (Invitrogen™ Molecular Probes™) and 5 μM Syto-9 (Invitrogen™ Molecular Probes™) stains were added and incubated for 45 mins […] with 150 rpm. After incubation, the samples were centrifuged, and bacteria was re-suspended in 10 μl sterile water. For microscopic analysis, 3 μL of bacterial suspension was added to glass slides with 1.2% agar and 20% LB media. Untreated ST bacterial culture was used as a control. Leica TCS SP6 confocal scanning microscope (Excitation/emission (nm); FM4-64 (515/640), SYTO-9 (485/498) was used at the Ohio State University's Molecular and Cellular Imaging Center (MCIC; mcic.osu.edu/microscopy).

APEC [4] = tested on: APEC
Protocol: FIGS. 58A-58B show the APEC load after treatment 8 days dpi with LGG and 50 mg/mL of peptides in drinking water.

APEC O78 = assay: Efficacy in wax moth larvae model; format: in vivo, Galleria mellonella
Protocol: Efficacy and toxicity of peptides in wax moth (Galleria mellonella) larvae model: To measure the efficacy and toxicity of peptides (P1, P2, and P3) in vivo, wax moth larvae model was used as described previously. Wax moth larvae were obtained from Vanderhorst Wholesale, Inc. (Saint Marys, OH) and were kept at 37° C. overnight before use. Healthy larvae (creamy color with no blackening) were selected and kept in sterile petri dishes before inoculation. For toxicity evaluation, larvae (n=10/group) were injected with 25.5 mM of peptides (dissolved in sterile water containing DMSO) through last left pro-leg using PB600-1 repeating dispenser (Hamilton) attached to insulin syringe (ReliOn; 31 gauze, 8 mm needle length). The injected larvae were incubated for 72 h at 37° C., and mortality was recorded every 12 h.
For efficacy evaluation, larvae (n=15/group) were pretreated (as above) and infected with rifampicin resistant (Rif) APEC O78 (2.3×10^4 CFU/larva) through last right pro-leg within 30 mins of treatment. The larvae were incubated at 37° C. for 72 h and mortality was recorded as above. […] The statistical significance (P<0.05) of treatments on survival of larvae and APEC load inside larvae was calculated using log-rank test and one-way ANOVA followed by Tukey's post-hoc test, respectively.

PDENK [Peptide P2, PDENK]
Reduction of APEC colonization in cecum (APEC [1]; 50 mg/L in drinking water, 7 dpi): 1.5 log CFU/gm
Bodyweight (APEC [1]; in vivo): no significant effect
MlaA level decreased vs untreated APEC (MlaA): 1.40 folds
OmpC level lower than in untreated APEC (OmpC): 9.27 folds
Relative importance of D and E in P2 (APEC [2]): 97.1%
Relative importance of P, N and K in P2 (APEC [2]): < 40%
Growth of Gram-negative beneficial bacteria, particularly E. coli [3]: inhibited
Growth of Gram-positive beneficial bacteria [3]: no effect
Growth inhibition against APEC serotypes (multiple APEC serotypes): 95.0-100%
Reduction of S. typhimurium colonization in ceca (S. typhimurium): 0.69 log CFU/gm
ST membrane in confocal microscopy (FM4-64 stain) (ST membrane): little to no red stain present
Reduction of APEC colonization in ceca (APEC [4]; LGG and 50 mg/mL of peptides in drinking water, 8 days dpi): 1.02 Log CFU/gm
Bodyweight (APEC [4]; in vivo): no significant effect
APEC load in the larvae (APEC O78; 72 h post-infection, untreated 7.4±3.1 log CFU/larva): no APEC was isolated
Larval mortality (APEC O78; pretreated with 25.5 mM, 72 h, untreated 73.34%): 26.67%
